In assay [1] the test system is PAF-Induced Platelet Aggregation. In words: Inhibition of PAF-Induced Platelet Aggregation. Format: cell-based, rabbit (male New Zealand White). The following applies: Oryctolagus cuniculus; rabbit platelet-rich plasma, PAF 100 ng.ml^-1 (50 μl aliquot), 37° C. On the procedure:
Inhibition of PAF-Induced Platelet Aggregation
Male New Zealand White rabbits (3.0-3.5 kg) were anaesthetised by intravenous administration of sodium pentobarbitone, […], via a marginal ear vein. The trachea was exposed and connected to a respiratory pump (Havard UK) to provide artificial ventilation. A carotid artery was exposed and cannulated and the animal was exsanguinated. Whole blood was collected in a syringe containing tri-sodium citrate (3.8% w/v) to a ratio of 1 part citrate:9 parts blood.
Collected blood was centrifuged at 180×g for 15 minutes at room temperature (21° C.) to prepare platelet-rich plasma (PRP). The remaining blood was then centrifuged at 1800×g for 10 minutes at room temperature to obtain platelet poor plasma (PPP).
Platelet count of the PRP was measured using a Technicon H1 blood cell differential analyser (Bayer Diagnostics UK) and adjusted with PPP to obtain a final platelet count of 500,000 platelets per μl of plasma, this being the normal physiological platelet count for rabbits. Corrected PRP was left to equilibrate at room temperature for 30 minutes before use.
Aggregation studies were carried out using 4-channel aggregometer (PAP-4C, BioData USA) as follows: 400 μl aliquots of PRP were placed in siliconised cuvettes and incubated to 37° C. for 1 to 2 minutes in the heating block of the aggregometer. Baseline (100% aggregation) was set up using PPP (500 μl in a siliconised cuvette). The PRP was placed into a measuring well of the aggregometer, and a stir bar was added. The sample was stirred at 1000 rpm. The machine was activated to set the 0% aggregation level. Test compound or vehicle (50 μl) was added to the PRP, where any effects on the baseline was noted. PAF (100 ng.ml^-1 as 50 μl aliqout) was added to the PRP 3 minutes after test compound or vehicle. Aggregation was measured for a further 4 minutes after PAF addition and the maximum aggregation over the 4 minutes was recorded.
The investigation of different concentrations of test compound was performed in triplicate. Data were expressed as […] of the sample and test compound data were compared to vehicle data to obtain % inhibition of the PAF-induced aggregation from which IC50 values could be determined.
PAF was made up in sterile saline (NaCl 0.9% w/v) containing BSA (0.25% w/v) from an initial stock solution (10 mg.ml^-1 in EtOH). Test compounds were made up as 1×10^-3 M stock solutions in sterile saline containing molar equivalents of 1N HCI (v/v) or in DMSO.

Assay [2] has as its target T1, Histamine-1 Receptors on Hela-S3 Cells (Homo sapiens, UniProt P35367).
T1 construct: histamine-1 receptors on Hela-S3 cells (American Type Culture Collection); endogenous in cells; host or cells: HeLa S3 cells (American Type Culture Collection), intact cell suspension
Put plainly: Inhibition of [^3 H]-Pyrilamine Binding to Histamine-1 Receptors on Hela-S3 Cells. As to conditions: 0.5 h, 1 μM test compound, 37° C., 30 minutes, read-out: % Specific Binding. The protocol:
Inhibition of [^3 H]-Pyrilamine Binding to Histamine-1 Receptors on Hela-S3 Cells
The inhibition of [^3 H]-pyrilamine binding to histamine-1 receptors on Hela-S3 cells (American Type Culture Collection) was determined by isotopic labelling and filtration techniques. A suspension of the cells in buffer (25 ml, 0.5% Bovine Serum Albumin, 0.1% sodium azide, phosphate buffered saline (PBS)) was centrifuged at 1000 rpm for 5 minutes in a JOUAN CR 422 centrifuge, collected, resuspended in buffer (25 ml) and spun again. The cells were counted using a haemocytometer and resuspended in buffer to provide a final concentration of 4.5×10^6 cells ml^-1. A portion of the Hela S3 cell suspension (1 ml) was added to each assay tube containing 25 μl of vehicle (50% DMSO/buffer) or 25 μl of solution containing test compound (dissolved in DMSO and diluted with sufficient PBS to give a final test concentration of 1 μM) and 25 μl 0f [^3 H]-pyrilamine (supplied by Amersham International and diluted with PBS to 3 nM). The tubes were mixed and incubated at 37° C. for 30 minutes. The tubes were then spun at 4° C. at 2000 rpm for 2 minutes. The supematant was removed and the cells resuspended in buffer (repeated x2). The cells were suspended in 300 μl of a 2:1 solution of 1M sodium hydroxide and 1% sodium dodecyl sulphate. The tubes were left overnight before the contents were tranferred to a scintillation vial, treated with 10 ml, OPTIPHASE MP scintillation fluid (OPTIPHASE MP is a trade mark) and the radioactivity counted in a scintillation counter. Non-displcable binding (NDB) was determined using Astemizole (5×10^-5 M) in place of test compounds. Defining the counts for total binding from the vehicle control sample as "TB" and the counts for total binding with antagonist as "TBA" the percentage specific binding (%SB) can be determined from the following equation. [formula] Results

The subject of assay [3] is PAF Induced Bronchoconstriction. In words: PAF Induced Bronchoconstriction in the Anaesthetised Guinea Pig. Format: in vivo, guinea pig (male Dunkin-Hartley). As to conditions: 10 mgkg^-1, p.o., PAF 100 ngkg^-1 i.v. bolus one hour after oral dosing. The text has this:
PAF Induced Bronchoconstriction in the Anaesthetised Guinea Pig
(§1) Following oral administration of test compound or vehicle, male Dunkin-Hartley guinea pigs (350-400 g) were anaesthetised by intraperitoneal injection of 60 mgkg^-1 sodium pentobarbitone (Sagatal, May & Baker UK). Through a midline incision of the neck, the trachea was cannulated and connected to a small animal respirator (Harvard, UK). Animals were artificially ventilated at a rate of 30 breaths per minute with a tidal volume of 8-10 ml to give a resting tracheal inflation pressure of 15mmHg as measured by a physiological pressure transducer (type P23XL, Spectramed USA) connected to a side arm of the respiratory circuit.
A jugular vein was cannulated for the administration of a bolus dose of propranolol and for the later administration of bolus PAF. A carotid artery cannulated for the measurement of arterial blood pressure via a physiological pressure transducer (type P23XL, Spectramed USA). Blood pressure and tracheal inflation pressure were recorded on a thermal array chart recorder (type TA4000, Gould Electronics UK).
Propranolol (1 mgkg^-1 i.v. & 3 mgkg^-1 s.c. Sigma Chemical Co. UK) was administered 10 minutes before PAF in order to prevent the bronchodilatory activity of catecholamines which may be released in response to PAF administration. PAF (100 ngkg^-1 i.v. bolus) was administered at the one hour time point following oral administration of the test compound or vehicle.
Changes in tracheal inflation pressure and blood pressure of drug treated animals were compared with changes from vehicle treated animals and percentage inhibition determined. One dose of test compound was investigated per animal.

For assay [4], the system named is Histamine Induced Bronchoconstriction. In words: Histamine Induced Bronchoconstriction in the Anaesthetised Guinea Pig. The assay is classed as in vivo, guinea pig (male Dunkin-Hartley). The following applies: Cavia porcellus, 1 h, p.o., histamine infusion 10 μgkg^-1 min^-1 started one hour after oral dosing.
Text: Histamine Induced Bronchoconstriction in the Anaesthetised Guinea Pig
as §1, with “vehicle by oral gavage,” for “vehicle,”, “15 mmHg” for “15mmHg”
A jugular vein was cannulated for the administration of propranolol and for the infusion of histamine. A carotid artery was cannulated for the measurement of arterial blood pressure via a physiological pressure transducer (type P23XL, Spectramed USA). Blood pressure and tracheal inflation pressure were recorded on a thermal array chart recorder (type TA4000, Gould Electronics UK).
Following a suitable equilibration period, propranolol (1 mgkg^-1 i.v. & 3 mgkg ^-1 s.c. Sigma Chemical Co. UK) was administered to inhibit any resulting catecholamine release following histamine administration.
Histamine infusion (10 μgkg^-1 min^-1 at a rate of 10 mlhr^-1 using a perfusion pump type Perfuser securer FT, B. Braun Germany) was started at the one hour time point following oral administration of the test compound or vehicle. Changes in tracheal inflation pressure and blood pressure of drug treated animals were compared with changes from vehicle treated animals and ED50 values determined. One dose of test compound was investigated per animal.

Here are results for seven compounds from US5753671A, “Imidazopyridine derivatives as dual histamine (H1) and platelet activating factor (PAF) antagonists” (British Biotech Pharmaceuticals Limited, priority 1994, dated 1998).

T1 sequence (P35367 whole entry): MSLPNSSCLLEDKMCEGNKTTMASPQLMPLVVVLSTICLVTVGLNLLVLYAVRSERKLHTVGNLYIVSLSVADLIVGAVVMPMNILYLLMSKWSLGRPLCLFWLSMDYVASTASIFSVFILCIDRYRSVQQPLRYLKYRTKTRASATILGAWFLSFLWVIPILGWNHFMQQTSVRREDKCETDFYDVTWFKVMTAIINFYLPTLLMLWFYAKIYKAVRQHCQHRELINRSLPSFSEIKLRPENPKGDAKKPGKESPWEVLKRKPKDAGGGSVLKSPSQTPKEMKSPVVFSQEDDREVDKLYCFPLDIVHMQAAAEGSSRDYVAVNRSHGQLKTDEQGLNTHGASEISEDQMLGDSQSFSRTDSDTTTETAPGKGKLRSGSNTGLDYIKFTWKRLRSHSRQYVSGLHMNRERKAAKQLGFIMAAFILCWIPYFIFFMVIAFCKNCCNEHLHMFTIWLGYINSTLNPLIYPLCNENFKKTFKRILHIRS

In the case of `Cc1nc2cnccc2n1Cc1ccc(S(=O)(=O)N(C)[C@@H](CC(C)C)C(=O)OC(CCCN2CCC(C(O)(c3ccccc3)c3ccccc3)CC2)c2ccc(C(C)(C)C)cc2)cc1` (stereo partly drawn) [Example 2, N-Methyl-N-4-(1H-2-methylimidazo[4,5-c]pyridinylmethyl)-phenylsulphonyl-L-leucine-2-(4-[1,1-dimethylethyl]phenyl)-4-(hydroxydiphenylmethyl)-1-piperidinebutyl ester], in assay [1], the half-maximal inhibitory concentration (IC50) was 2100 nM. The activity at 1 µM in assay [2] was found to be 57%.
For `Cc1nc2cnccc2n1Cc1ccc(S(=O)(=O)N(C)[C@@H](CC(C)C)C(=O)OCCCN2CCN(C(c3ccccc3)c3ccccc3)CC2)cc1` [Example 4, N-Methyl-N-4-(1H-2-methylimidazo[4,5-c]pyridinylmethyl)-phenylsulphonyl-L-leucine-3-(4-benzhydryl-piperazin-1-yl)-propyl ester] the same measures were 190 nM and 34%.
On to `Cc1nc2cnccc2n1Cc1ccc(S(=O)(=O)N(C)[C@@H](CC(C)C)C(=O)N2CCC(=C3c4ccc(Cl)cc4CCc4cccnc43)CC2)cc1` [Example 6, 4-(8-Chloro-5,6-dihydro-11H-benzo[5,6]cyclohepta[1.2-b]-pyridin-11-ylidene)-1-(N-methyl-N-4-{1H-2-methylimidazo[4,5-c]pyridinylmethyl}-phenylsulphonyl-L-leucyl)-piperidine amide], for which the IC50 in assay [1] stood at 252 nM. Also, the “% Inhibition” value in assay [3] is 40%. Also, the activity at 1 µM in assay [2] was found to be 79%. The ED50 in assay [4] amounted to 6.5 mg/kg.
Turning to `Cc1ccc(/C(=C\CN2CCCC2)c2cccc(/C=C/C(=O)OC[C@H](CC(C)C)N(C)S(=O)(=O)c3ccc(Cn4c(C)nc5cnccc54)cc3)n2)cc1` [Example 8, (E)-3-(6-[Pyrrolidino-1-{4-tolyl}prop-1E-enyl]-2-pyridyl)acrylic acid, N-methyl-N-4-(1H-2-methylimidazo[4,5-c]pyridinylmethyl)-phenylsulphonyl-L-leucyl ester], the “% Inhibition” value in assay [3] stood at 46%. Further, it took a dose of 0.16 mg/kg to reach the 50% effect level in assay [4] (ED50).
In assay [1], `Cc1ccc(/C(=C\CN2CCCC2)c2cccc(/C=C/COC(=O)[C@H](CC(C)C)N(C)S(=O)(=O)c3ccc(Cn4c(C)nc5cnccc54)cc3)n2)cc1` [Example 17, 4-Methyl-2-{methyl-[4-(2-methyl-imidazo[4,5-c]pyridin-1-ylmethyl)-phenylsulphonyl]-amino}-pentanoic acid-(E)-3-(6-[3-pyrrolidino-1-{4-tolyl}-prop-1E-enyl]-pyridin-2-yl)-prop-2-en-1-yl ester] came in with an IC50 of 115 nM. For the same compound, the activity at 1 µM in assay [2] was found to be 47%.
Compound `CCOC[C@H](CC(C)C)N(CCCN(C)CCC(c1ccc(Cl)cc1)c1ccccn1)S(=O)(=O)c1ccc(Cn2c(C)nc3cnccc32)cc1` (stereo partly drawn) [Example 23, N-(3-{[3-(R,S)-(4-Chlorophenyl)-3-pyridin-2-yl-propyl]-methylamino}propyl)-N-(S)-(1-ethoxymethyl-3-methylbutyl)-4-(1H-2-methylimidazo[4,5-c]pyridin-1-ylmethyl)-phenylsulphonamide] had an IC50 in assay [1] of 300 nM. Further, in assay [2], the activity at 1 µM amounted to 33%.
Turning to `CCOC[C@H](CC(C)C)N(C/C=C/c1cccc(/C(=C/CN2CCCC2)c2ccc(C)cc2)n1)S(=O)(=O)c1ccc(Cn2c(C)nc3cnccc32)cc1` [Example 25, N-(S)-(1-Ethoxymethyl-3-methylbutyl)-N-{(E)-3-(6-[3-pyrrolidino-1-{4-tolyl}-prop-1E-enyl]-pyridin-2-yl)-prop-2-en-1-yl}-4-(1H-2-methylimidazo[4,5-c]pyridin-1-ylmethyl)-phenylsulphonamide], the IC50 in assay [1] is 420 nM. In addition, the “% Inhibition” value in assay [3] amounted to 50%. Besides, the activity at 1 µM in assay [2] is 55%. Also, it took a dose of 0.5 mg/kg to reach the 50% effect level in assay [4] (ED50).
